≈ marks a conversion by molar mass, not a printed value. Positions of bridges follow the written chain, without caps; N, C: chain ends. Non-standard residues stand in square brackets, D forms with d. Residues, ends and D or L forms follow the SMILES beside them. No end group written: not given here. Bip = N[C@@H](Cc1ccc(-c2ccccc2)cc1)C(=O)O; 2Nal = N[C@@H](Cc1ccc2ccccc2c1)C(=O)O
Key:
[1] = tested on: Vancomycin-intermediate S. aureus 02 (VISA02); experiment: microbe, parasite or virus in culture; assay type: cell-based, Staphylococcus aureus; conditions: Vancomycin-intermediate 02 (VISA02, 16 h)
Experimental: (§1) The antibacterial activities of peptides were determined by the standard broth microdilution method according to the guidelines of the Clinical and Laboratory Standards Institute (CLSI). Briefly, E. coli ATCC 25922 were incubated in MHB, and E. faecium BCRC 15B0132, VISA and VRSA strains were incubated in TSB overnight at 37 °C. The cell cultures were regrown to the mid-log phase and subsequently diluted to a final concentration of 5 × 10^5 CFU/mL. The 1 µL peptides or antibiotic were loaded into each well at the final concentration of 64, 32, 16, 8, 4, 2, 1, and 0.5 µg/mL, then loaded 99 µL diluted microbes into each well of polypropylene 96-well plate. After 16 h of incubation at 37 °C, the turbidity at OD600 was measured by the microplate reader. The minimal inhibitory concentration (MIC) value was defined as the lowest concentration of peptide or antibiotic, which inhibited the 90% visible growth of bacteria. All experiments were repeated three times independently.

[2] = tested on: Vancomycin-intermediate S. aureus 03 (VISA03); experiment: microbe, parasite or virus in culture; assay type: cell-based, Staphylococcus aureus; conditions: Vancomycin-intermediate 03 (VISA03, 16 h)
Experimental: as §1

[3] = tested on: Vancomycin-intermediate S. aureus 01 (VISA01); experiment: microbe, parasite or virus in culture; assay type: cell-based, Staphylococcus aureus; conditions: Vancomycin-intermediate 01 (VISA01, 16 h)
Experimental: as §1

[4] = tested on: Vancomycin-resistant S. aureus 02 (VRSA02); experiment: microbe, parasite or virus in culture; assay type: cell-based, Staphylococcus aureus; conditions: VRSA02 (induced from VISA02 by serial passage); CLSI broth microdilution, TSB, 5 × 10^5 CFU/mL, 16 h, 37 °C; triplicate
Experimental: (§2) For the purpose of inducing vancomycin-resistant Staphylococcus aureus (VRSA), the VISA01, VISA02, and VISA03 bacteria were incubated overnight in culture medium, and transferring 50 µL of bacteria to 5 mL of fresh medium containing 2 μg/mL of vancomycin then incubated overnight. The bacteria were transferred to new tube with doubling vancomycin concentration and then incubated overnight again. The concentration of vancomycin during serial passage was 2, 4, 8, 16, and 32 µg/mL. The procedure was repeated until meeting the final concentration of 32 µg/mL. After serial passage, the cell resistance was confirmed by using an MIC assay.
as §1

[5] = tested on: Vancomycin-resistant S. aureus 03 (VRSA03); experiment: microbe, parasite or virus in culture; assay type: cell-based, Staphylococcus aureus; conditions: VRSA03 (induced from VISA03 by serial passage); CLSI broth microdilution, TSB, 5 × 10^5 CFU/mL, 16 h, 37 °C; triplicate
Experimental: as §2, §1

[6] = tested on: Vancomycin-resistant S. aureus 01 (VRSA01); experiment: microbe, parasite or virus in culture; assay type: cell-based, Staphylococcus aureus; conditions: VRSA01 (induced from VISA01 by serial passage); CLSI broth microdilution, TSB, 5 × 10^5 CFU/mL, 16 h, 37 °C; triplicate
Experimental: as §2, §1

[7] = among the P-113 derivatives; cited from earlier work
Source text: The two terminal β-naphthylalanine residues of S1-Nal-Nal (Ac-[…]alNal-NH2) were inserted into the hydrophobic lipid A motif of LPS micelles. […] Similarly, derivatives with phenylalanine-(Phe-P-113), β-naphthylalanine- (Nal-P-1 ...

[8] = tested on: E. faecium BCRC 15B0132 (VRE); experiment: microbe, parasite or virus in culture; assay type: cell-based, Enterococcus faecium; conditions: BCRC 15, 16 h
Experimental: as §1

[9] = tested on: VRE, VISA, VRSA, and E. coli strains; experiment: microbe, parasite or virus in culture; assay type: cell-based; conditions: all strains studied (VRE, VISA 01-03, VRSA 01-03, E. coli), Table 2
Experimental: as §1

[10] = tested on: VRE, VISA, VRSA and E. coli strains; experiment: Checkerboard assay, summary statements of the text over the strain panel; assay type: cell-based; conditions: peptide at ¼ ×MIC combined with vancomycin, all strains studied
Experimental: The synergistic effects of peptides in combination with vancomycin were investigated by checkerboard assay with slight modification. The peptides were fixed concentration at ¼ × MIC, then in combination with antibiotics at various concentrations in each well of 96-well plate. Then the peptide/antibiotic were mixed with inoculum (5 × 10^5 CFU/mL) and incubated at 37 °C for 16 h. The fractional inhibitory concentration (FIC) index was calculated as follows: FIC index = (MIC of drug A in combination/MIC of drug A alone) + (MIC of drug B in combination/MIC of drug B alone). An FIC index of ≤ 0.5 was defined as synergy, indifference was defined as an FIC index of 0.5 < FICI ≤ 4, antagonism was defined as an FIC index of > 4. The experiments were performed in triplicate.

[11] = tested on: E. coli ATCC 25922; experiment: Uptake of BODIPY-labeled vancomycin, confocal laser scanning microscopy; assay type: cell-based, Escherichia coli; conditions: E. coli 10^7 CFU/mL, 0.5 ×MIC peptide 30 min at 37 °C, then BODIPY-labeled vancomycin (2 μg/mL) 30 min; mean fluorescence intensity
Experimental: (§3) The fluorescence experiments were performed with slight modification as described previously. Briefly, the bacteria (10^7 CFU/mL) were incubated with 0.5 ×MIC antimicrobial peptides for 30 min and then treated with BODIPY-labeled vancomycin (2 μg/mL) for 30 min. Samples treated with BODIPY-labeled vancomycin only served as a control. After incubation, bacteria were centrifuged at 8000× g for 5 min, washed three times with PBS to remove unbinding fluorescence dye, and resuspended by PBS. The resuspended solution were loaded on the glass slides (Polysine™, Thermo Fisher Scientific, Waltham, MA, USA) and visualized under confocal laser scanning microscope (LSM 510 META, Carl Zeiss, Jena, Thüringen, Germany) equipped with a 64× oil objective lens (Carl Zeiss, Jena, Thüringen, Germany).

[12] = tested on: E. faecium BCRC 15B0132; experiment: as above; assay type: cell-based, Enterococcus faecium; conditions: VRE 10^7 CFU/mL, 0.5 ×MIC peptide 30 min at 37 °C, then BODIPY-labeled vancomycin (2 μg/mL) 30 min; mean fluorescence intensity
Experimental: as §3

[13] = POPC:POPG (3:1, mol/mol) and POPC:LPS (4:1, mol/mol) LUVs; cited from earlier work
Source text: Dathe and coauthors used POPC:LPS as model prokaryotic membranes to study peptide activity against E. coli and the role of LPS [20]. Previously, we have evaluated the membrane-permeability of P-113 and its derivatives by measuring the release of calcein from various phospholipid vesicles such as POPC:POPG (3:1, mol/mol) LUVs (mimic the anionic bacterial membrane) and POPC:LPS (4:1, mol/mol) LUVs (served as surrogates of Gram-negative bacterial membranes that contain LPS). […] Nal- ...

[14] = tested on: human fibroblasts (HFW); conditions: peptide >25 µg/mL; cited from earlier work
[15] = tested on: mice; conditions: mouse, in vivo, 10 mg/kg; cited from earlier work
[16] = tested on: E. coli ATCC 25922; experiment: microbe, parasite or virus in culture; assay type: cell-based, Escherichia coli; conditions: ATCC 25922, 16 h
Experimental: as §1

[17] = tested on: E. faecium BCRC 15B0132 (VRE); experiment: Time killing assay; assay type: cell-based, Enterococcus faecium; conditions: 5 × 10^5 CFU/mL, 1 × MIC, 0.5-24 h, 37 °C, triplicate
Experimental: (§4) The bactericidal activities of vancomycin, P-113, Phe-P-113, Bip-P-113, Dip-P-113, and Nal-P-113 against E. faecium BCRC 15B0132 (VRE) and E. coli ATCC 25922 were assessed by the time-kill analysis. The cells were grown overnight in TSB or MHB at 37 °C with shaking, and then fresh TSB or MHB was inoculated for growth to mid-logarithmic phase. Bacteria (5 × 10^5 CFU/mL) were treated with 1 × MIC vancomycin, P-113, Phe-P-113, Bip-P-113, Dip-P-113, and Nal-P-113 for 0.5, 1, 2, 4, 6, 10, and 24 h at 37 °C. Bacteria without peptides and vancomycin served as a control. Aliquots were removed at each time points, and 10-fold serial dilutions of the aliquot were plated onto the Müller-Hinton agar. The numbers of CFU were counted after 24 h of incubation at 37 °C. The detection limit for the colony counts was 2log10 CFU/mL.

[18] = tested on: E. coli ATCC 25922; experiment: Time killing assay; assay type: cell-based, Escherichia coli; conditions: E. coli ATCC 25922, 5 × 10^5 CFU/mL, 1 × MIC, 0.5-24 h, 37 °C; triplicate
Experimental: as §4

[19] = tested on: Gram-negative bacteria; conditions: cited from earlier work
Source text: CLP-19 was derived from the core domain of Limulus anti-LPS factor (LALF; amino acids 31–52) with a sequence of ([…]) and a head to tail disulfide bond. It is likely that the positive charges of CLP-19 can interact with the negative charges of LPS and the hydrophobic part of CLP-19 can bind to the f ...

## CC(=O)N[C@@H](C)C(=O)N[C@@H](CCCCN)C(=O)N[C@@H](CCCNC(=N)N)C(=O)N[C@@H](Cc1ccc(-c2ccccc2)cc1)C(=O)N[C@@H](Cc1ccc(-c2ccccc2)cc1)C(=O)NCC(=O)N[C@@H](Cc1ccc(O)cc1)C(=O)N[C@@H](CCCCN)C(=O)N[C@@H](CCCNC(=N)N)C(=O)N[C@@H](CCCCN)C(=O)N[C@@H](Cc1ccccc1)C(=O)N[C@@H](Cc1ccc(-c2ccccc2)cc1)C(N)=O [Bip-P-113] (Ac-AKR[Bip][Bip]GYKRKF[Bip]-NH2)
[1]
  MIC: 16 µg/mL (≈ 8.58 µM)
[2]
  MIC: 8 µg/mL (≈ 4.29 µM)
[3]
  MIC: 16 µg/mL (≈ 8.58 µM)
[4]
  MIC: 16 µg/mL (≈ 8.58 µM)
[5]
  MIC: 8 µg/mL (≈ 4.29 µM)
[6]
  MIC: 16 µg/mL (≈ 8.58 µM)
[7]
  serum proteolytic stability: enhanced
[8]
  MIC: 4 µg/mL (≈ 2.15 µM)
[9]
  MICs against these bacterial strains: best MICs
[10]
  synergy with vancomycin (interpretation of FICI): best synergy with vancomycin against all of the bacterial strains tested
[11]
  entry of BODIPY-labeled vancomycin into the bacteria (rank order): Bip-P-113 > Nal-P-113 > Dip-P-113 > Phe-P-113 = P-113
[12]
  entry of BODIPY-labeled vancomycin into the bacteria (rank order): Bip-P-113 = Nal-P-113 > Dip-P-113 > Phe-P-113 = P-113
[13]
  calcein leakage from LUVs: strongest ability to induce calcein leakage
[14]
  cell death (MTT): 10–20%
[15]
  adverse effect in mice: did not observe any adverse effect
[16]
  MIC: 32 µg/mL (≈ 17.2 µM)
[17]
  killing kinetics: rapid bactericidal activity

## CC(=O)N[C@@H](C)C(=O)N[C@@H](CCCCN)C(=O)N[C@@H](CCCNC(=N)N)C(=O)N[C@@H](Cc1ccc2ccccc2c1)C(=O)N[C@@H](Cc1ccc2ccccc2c1)C(=O)NCC(=O)N[C@@H](Cc1ccc(O)cc1)C(=O)N[C@@H](CCCCN)C(=O)N[C@@H](CCCNC(=N)N)C(=O)N[C@@H](CCCCN)C(=O)N[C@@H](Cc1ccccc1)C(=O)N[C@@H](Cc1ccc2ccccc2c1)C(N)=O [Nal-P-113] (Ac-AKR[2Nal][2Nal]GYKRKF[2Nal]-NH2)
[1]
  MIC: 8 µg/mL (≈ 4.48 µM)
[2]
  MIC: 8 µg/mL (≈ 4.48 µM)
[3]
  MIC: 8 µg/mL (≈ 4.48 µM)
[4]
  MIC: 8 µg/mL (≈ 4.48 µM)
[5]
  MIC: 16 µg/mL (≈ 8.96 µM)
[6]
  MIC: 8 µg/mL (≈ 4.48 µM)
[8]
  MIC: 4 µg/mL (≈ 2.24 µM)
[9]
  MICs against these bacterial strains: best MICs
[10]
  synergy with vancomycin (interpretation of FICI): synergistic effects against VRE, VISA 03, VRSA 01, VRSA 02, VRSA 03, and E. coli
[11]
  entry of BODIPY-labeled vancomycin into the bacteria (rank order): Bip-P-113 > Nal-P-113 > Dip-P-113 > Phe-P-113 = P-113
[12]
  entry of BODIPY-labeled vancomycin into the bacteria (rank order): Bip-P-113 = Nal-P-113 > Dip-P-113 > Phe-P-113 = P-113
[13]
  calcein leakage from LUVs: dose-dependent calcein leakage
[14]
  cell death (MTT): 10–20%
[18]
  killing kinetics: fastest bactericidal activity
[16]
  MIC: 32 µg/mL (≈ 17.9 µM)
[17]
  killing kinetics: rapid bactericidal activity

## CHYRIKPTFRRLKWKYKGKFWC (disulfide 1-22 (inferred)) [CLP-19, antimicrobial peptide derived from the core domain of Limulus anti-LPS factor, with a disulfide bond]
[19]
  antibiotic-induced release of LPS: reduce antibiotic-induced release of LPS
